Where no end group is shown, it is not given here.
Columns and labels:
[1] = test system: Porphyromonas gingivalis strain A7A1-28; assay: microdilution bacteriostatic assay (P. gingivalis growth inhibition); format: cell-based; details: for P. gingivalis: % increase in time to reach mid logphase growth (0.2 OD): 2 mM dose
Description: (a) The bacteria used in one investigation, Porphyromonas gingivalis strain A7A1-28, is a typical key pathogenic organism associated with destructive periodontal diseases. The bacteria were multiply subcultured in Enriched Todd Hewitt broth (ETHB, Difco Lab., Detroit, Mich.). Microorganisms were stored in the same broths containing 20% and 50% glycerol, at -20° C. and -70° C., respectively. These served as stock cultures from which all preparations originated.
Working stock cultures were maintained by weekly transfer to Brain Heart Infusion Anaerobic Sheep Blood Agar plates (BHIA, Becton Dickinson and Co., Cockeysville, Md.), and Trypticase Soy Anaerobic Sheep Blood Agar plates (TSA, Becton Dickinson and Co., Cockeysville, Md.). Plates were incubated for 3 to 4 days under strictly anaerobic conditions. For the bacteriostatic assay, bacteria were collected from plates, inoculated into the aforementioned broth and grown at 37° C., under strictly anaerobic conditions for 24 to 48 hours.
A modification of the typical microdilution assay (Rotilie et al., 1975) for the determination of minimal inhibitory concentration (MIC) of antimicrobial agents was utilized to investigate the bacteriostatic activity of the peptides. A standardized bacterial inoculum (P. gingivalis) was exposed to serially diluted antimicrobial peptides in an enriched broth medium that was suitable for the growth of anaerobic bacteria. The test was adapted for use in the 96-well microtiter plates. […] The modification introduced here was based on the spectrophotometric reading of the microtiter plate after incubation.
Microorganisms from cultures maintained in the aforementioned plates were inoculated into 5 ml of the above-mentioned broths and cultured overnight at 37° C. under strictly anaerobic conditions with continuous agitation on a minishaker (IKA-Labortechnik, Staufen i. Br., Germany). The bacteria were grown until reaching the late log phase and were then suspended in the same broths to an optical density (O.D.) of 0.1 at 560 nm. The peptides were diluted in 0.01M phosphate buffered saline (PBS), pH 7. Forty μl aliquots of peptide dilutions were added in each well of a U-bottom microtiter plate (Costar, Cambridge, Mass.) to give final concentrations of 2000, 1000, 500 and 250 μM. Twenty μl of bacterial inoculum was added to all the wells. Finally, 100 μl of the suitable broth were added to each well. The optical density of the wells of the microtiter plate was determined using a microplate reader set at 550 nm and the plate was then incubated under strictly anaerobic conditions for 24 hours. Controls were made by replacing the peptide dilutions with PBS alone. After the incubation, the mixtures in each well were mixed manually to resuspend sedimented bacteria and the plate was read again. The experiments were conducted twice every time. The biologic activity was calculated according to the formula:
100-[[(Fin ODexp-In ODexp)/(Fin ODctr-In ODctr)]×100]
In addition, the % increase in time to reach midlog phase growth was calculated.
The data presentation represent the means (±SEM) of at least 2 separate experiments.

[2] = test system: P. gingivalis hemagglutination of erythrocytes; assay: histatin peptide inhibition of hemagglutination assay; format: cell-based, Porphyromonas gingivalis; details: for Hemagglutination: lowest dose (μM) at which hemagglutination was observed using P. Gingivalis: 2 hours at room temperature, visual examination
Description: The P. gingivalis strain of Section C.(1) was also used for the hemagglutination assays. The bacterial growth and culture conditions were also the same as those described in Section C.(1).
A classic assay was utilized to determine the hemagglutination potential of the P. gingivalis strain. Microorganisms were inoculated into BFB broth and cultured overnight, for approximately 24 hours at 37° C. under strictly anaerobic conditions with continuous agitation on a minishaker (IKA-Labortechnik, Staufen i. Br., Germany). The bacteria were harvested by centrifugatin at 3,000 r.p.m. for 20 min, at 4° C., washed twice in 0.01M phosphate buffered saline (PBS), pH 7.4, and suspended in the same buffer to an optical density of 1.0 at 550 nm. […] One ml of blood was drawn each time, washed twice in PBS at 1,000 r.p.m. for 10 min at 4° C. and suspended in the same buffer at a 2% (v/v) final concentration. Fifty μl of the bacterial suspension were serially diluted in PBS (two-fold steps) in a 96-well U-bottom microplate (Costar, Cambridge, Mass.). Fifty μl of the erythrocyte suspension were added to each well. Controls without bacteria or erythrocytes were included. The microplate was slightly shaken and incubated at room temperature for 2 hours. Visible examination on a white background was used to determine hemagglutination. The amount of hemagglutination was rated as none,(-), moderate (+/-), or strong (+). Erythrocytes in control wells with PBS precipitated to the center of the well, whereas erythrocyte-bacteria aggregates precipitated at the periphery of the bottom. The hemagglutination titer was expressed as the reciprocal of the highest dilution of the bacterial suspension providing visible hemagglutination.
Preparation of erythrocyte and bacterial suspensions were the same as for the hemagglutination assay. Fifty μl of histatin peptide solutions were diluted in PBS in a U-bottom microplate, at various two-fold concentrations with 600 nmole/ml being the highest. The bacterial concentration utilized was normally twice the minimal concentration which gave strong hemagglutination. Equal volumes of the bacterial suspension were poured into the wells containing the histatin peptides. Finally, 50 μl of erythrocyte suspension were added in each well. The microplate was slightly shaken and incubated at room temperature for 2 hours. Controls were made by replacement of the peptide dilutions with PBS only. The experiments were conducted at least twice. The lowest histatin peptide concentration without hemagglutination (complete inhibition) was determined upon visual examination. The highest final histatin peptide concentration utilized was 100 nmole/ml.

Substance	P. gingivalis growth inhibition, in words [1]	bacteria mediated hemagglutination inhibition, in words [2]	Hemagglutination: lowest dose (μM) at which hemagglutination was observed using P. Gingivalis [2]	P. gingivalis: % increase in time to reach mid logphase growth (0.2 OD) [1]
AKRHHGYKR [peptide 120]	P. gingivalis growth inhibition	bacteria mediated hemagglutination inhibition	50 µM	
AKRHHGYKRK [peptide 119]	P. gingivalis growth inhibition	bacteria mediated hemagglutination inhibition	25 µM	
AKRHHGYKRKFH [peptide 113]	P. gingivalis growth inhibition	bacteria mediated hemagglutination inhibition	25 µM	34.95%
AKRHHGYKRKF [peptide 118]	P. gingivalis growth inhibition	bacteria mediated hemagglutination inhibition	6.25 µM	
KRHHGYKRKF [peptide 129]	P. gingivalis growth inhibition	bacteria mediated hemagglutination inhibition	50 µM	15.4%
His 11: histatin 11 (SEQ ID NO: 11), subpeptide of peptide 113 (KRHHGYKR)	P. gingivalis growth inhibition	bacteria mediated hemagglutination inhibition	100 µM	
peptide 117: subpeptide of peptide 113 (SEQ ID NO: 19) (KRHHGYKRKFH)	P. gingivalis growth inhibition	bacteria mediated hemagglutination inhibition		
